The subject of one assay is MIA PaCa-2. Put plainly: Antiproliferative activity against human MIAPaCa2 cells after 72 hrs by MTT assay. The format is functional, cell-based. As to conditions: MIA PaCa-2, 72 h.
Another assay relates to A549. Put plainly: Antiproliferative activity against human A549 cells after 72 hrs by MTT assay. The note with it: A549, 72 h. The format is functional, cell-based.

The structures appear in SMILES notation.

Usually IC50 stands for the point on the concentration scale where inhibition reaches its midpoint. Turning to `Cc1c(O)c(O)cc2c1C(=O)C=C1[C@@]2(C)CC[C@@]2(C)[C@@H]3C[C@](C)(NC(N)=O)CC[C@]3(C)CC[C@]12C`, the IC50 in the assay with MIA PaCa-2 is > 5000 nM; in the assay with A549, > 15000 nM.
Consider `CC1=C(O)C(=O)C=C2C1=CC=C1[C@@]2(C)CC[C@@]2(C)[C@@H]3C[C@](C)(NC(=O)NO)CC[C@]3(C)CC[C@]12C`, for which the figures for the IC50 in the assay on MIA PaCa-2 and in the assay on A549 were 850 nM and 3500 nM, respectively.
In the case of `CNC(=O)N[C@]1(C)CC[C@]2(C)CC[C@]3(C)C4=CC(=O)c5c(cc(OC)c(OC)c5C)[C@]4(C)CC[C@@]3(C)[C@@H]2C1`, the IC50 in the assay on MIA PaCa-2 was > 5000 nM; in the assay with A549, > 15000 nM.
For `CC(=O)Oc1cc2c(c(C)c1OC(C)=O)C(=O)C=C1[C@@]2(C)CC[C@@]2(C)[C@@H]3C[C@](C)(N=C=O)CC[C@]3(C)CC[C@]12C`, the IC50 in the assay with MIA PaCa-2 is > 5000 nM; in the assay with A549, > 15000 nM.
In the same order, the values of `CCNC(=O)N[C@]1(C)CC[C@]2(C)CC[C@]3(C)C4=CC=C5C(=CC(=O)C(O)=C5C)[C@]4(C)CC[C@@]3(C)[C@@H]2C1` are 550 nM and 1410 nM.
`CNC(=O)N[C@]1(C)CC[C@]2(C)CC[C@]3(C)C4=CC(=O)c5c(cc(O)c(O)c5C)[C@]4(C)CC[C@@]3(C)[C@@H]2C1`: the IC50 in the assay on MIA PaCa-2 is > 5000 nM; in the assay on A549 it was > 15000 nM.
Turning to `CC1=C(O)C(=O)C=C2C1=CC=C1[C@@]2(C)CC[C@@]2(C)[C@@H]3C[C@](C)(NC(=O)Nc4ccccc4)CC[C@]3(C)CC[C@]12C`, the 50% inhibitory concentration (IC50) in the assay with MIA PaCa-2 is 400 nM; in the assay with A549, 2270 nM.
As for `CC1=C(O)C(=O)C=C2C1=CC=C1[C@@]2(C)CC[C@@]2(C)[C@@H]3C[C@](C)(NC(=O)NCc4ccc(F)cc4)CC[C@]3(C)CC[C@]12C`, the IC50 was found to be 560 nM with MIA PaCa-2 and 4340 nM in the assay with A549.
In the same order, the values of `CC(=O)Oc1cc2c(c(C)c1OC(C)=O)C(=O)C=C1[C@@]2(C)CC[C@@]2(C)[C@@H]3C[C@](C)(C(=O)O)CC[C@]3(C)CC[C@]12C` are > 5000 nM and > 15000 nM.
For `CCCNC(=O)N[C@]1(C)CC[C@]2(C)CC[C@]3(C)C4=CC=C5C(=CC(=O)C(O)=C5C)[C@]4(C)CC[C@@]3(C)[C@@H]2C1`, the IC50 with MIA PaCa-2 is 660 nM; with A549 it was 1260 nM.
Turning to `Cc1c(O)c(O)cc2c1C(=O)C=C1[C@@]2(C)CC[C@@]2(C)[C@@H]3C[C@](C)(C(=O)O)CC[C@]3(C)CC[C@]12C`, the figures for the IC50 with MIA PaCa-2 and in the assay on A549 were > 5000 nM and > 15000 nM, respectively.
In the same order, the values of `CC1=C(O)C(=O)C=C2C1=CC=C1[C@@]2(C)CC[C@@]2(C)[C@@H]3C[C@](C)(NC(=O)Nc4ccccc4N)CC[C@]3(C)CC[C@]12C` are 560 nM and 2990 nM.
In the same order, the values of `CC1=C(O)C(=O)C=C2C1=CC=C1[C@@]2(C)CC[C@@]2(C)[C@@H]3C[C@](C)(NC(=O)NCc4ccc(C)cc4)CC[C@]3(C)CC[C@]12C` are 450 nM and 2450 nM.
For the compound `CC1=C(O)C(=O)C=C2C1=CC=C1[C@@]2(C)CC[C@@]2(C)[C@@H]3C[C@](C)(NC(N)=O)CC[C@]3(C)CC[C@]12C`, the IC50 stood at 630 nM in the assay on MIA PaCa-2 and 2480 nM in the assay with A549.
For the compound `CC(=O)Oc1cc2c(c(C)c1OC(C)=O)CC=C1[C@@]2(C)CC[C@@]2(C)[C@@H]3C[C@](C)(N=C=O)CC[C@]3(C)CC[C@]12C`, the results for the IC50 with MIA PaCa-2 and in the assay with A549 were 1410 nM and 2890 nM, respectively.
In the same order, the values of `CC1=C(O)C(=O)C=C2C1=CC=C1[C@@]2(C)CC[C@@]2(C)[C@@H]3C[C@](C)(NC(=O)NCCc4ccccc4)CC[C@]3(C)CC[C@]12C` are 410 nM and 1660 nM.

The record behind these values is ChEMBL document CHEMBL4190255, “Novel celastrol derivatives with improved selectivity and enhanced antitumour activity: Design, synthesis and biological evaluation” (Eur J Med Chem, 2017).
